Assay results published in article PMC2229537 (The Journal of General Physiology, 2002).
Values joined by “and” are separate entries in the source; they are usually repeats but may differ in a detail not shown here. Equal values may be shown once.

Key:
fetal mouse receptor = details: resting closed state; ref Zhang et al., 1995; cited from earlier work
Torpedo receptor = details: resting closed state; ref Sine et al., 1990; cited from earlier work
adult human receptor = details: resting closed state; ref Ohno et al., 1996; Wang et al., 1999; cited from earlier work
[1] = tested on: EP AChRs of CMS patient (εD175N and εN182Y); assay: Patch-clamp recordings of ACh-elicited channel currents from patient endplates; assay type: cell-based, human; details: −80 mV
wild-type AChR = wild-type AChR (Homo sapiens, UniProt P02708+Q04844+Q07001); assay type: binding; details: 100 μM proadifen
[2] = ACh 5 μM, 8 kHz, 22°C, mean ± SE, four EPs

Sequence of wild-type AChR (P02708 21-457): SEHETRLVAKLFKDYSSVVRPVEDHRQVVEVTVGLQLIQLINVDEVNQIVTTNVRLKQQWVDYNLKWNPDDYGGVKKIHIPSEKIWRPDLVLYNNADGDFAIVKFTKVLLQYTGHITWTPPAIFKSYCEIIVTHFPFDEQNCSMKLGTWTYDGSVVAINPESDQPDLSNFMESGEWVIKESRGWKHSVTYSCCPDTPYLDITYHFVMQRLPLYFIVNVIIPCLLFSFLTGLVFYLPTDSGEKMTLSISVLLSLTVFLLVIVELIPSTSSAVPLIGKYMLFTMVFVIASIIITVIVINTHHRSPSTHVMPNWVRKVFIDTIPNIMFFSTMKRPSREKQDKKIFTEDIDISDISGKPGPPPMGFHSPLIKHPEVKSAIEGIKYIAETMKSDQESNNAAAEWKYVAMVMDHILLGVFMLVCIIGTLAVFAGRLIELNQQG
Sequence of wild-type AChR (P11230 24-501 partner): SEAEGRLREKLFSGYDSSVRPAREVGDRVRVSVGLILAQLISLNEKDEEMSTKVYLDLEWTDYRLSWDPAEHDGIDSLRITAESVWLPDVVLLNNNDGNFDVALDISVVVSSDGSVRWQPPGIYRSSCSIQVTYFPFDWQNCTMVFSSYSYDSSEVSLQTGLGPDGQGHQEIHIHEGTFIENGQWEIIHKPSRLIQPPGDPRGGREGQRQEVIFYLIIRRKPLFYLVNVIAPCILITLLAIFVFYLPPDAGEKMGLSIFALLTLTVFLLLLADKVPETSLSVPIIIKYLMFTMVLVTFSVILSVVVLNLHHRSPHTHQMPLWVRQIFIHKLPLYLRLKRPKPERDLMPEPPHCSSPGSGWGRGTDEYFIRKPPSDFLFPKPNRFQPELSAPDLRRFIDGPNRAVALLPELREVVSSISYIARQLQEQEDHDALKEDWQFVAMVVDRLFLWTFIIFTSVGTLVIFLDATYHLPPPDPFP
Sequence of wild-type AChR (Q07001 22-517): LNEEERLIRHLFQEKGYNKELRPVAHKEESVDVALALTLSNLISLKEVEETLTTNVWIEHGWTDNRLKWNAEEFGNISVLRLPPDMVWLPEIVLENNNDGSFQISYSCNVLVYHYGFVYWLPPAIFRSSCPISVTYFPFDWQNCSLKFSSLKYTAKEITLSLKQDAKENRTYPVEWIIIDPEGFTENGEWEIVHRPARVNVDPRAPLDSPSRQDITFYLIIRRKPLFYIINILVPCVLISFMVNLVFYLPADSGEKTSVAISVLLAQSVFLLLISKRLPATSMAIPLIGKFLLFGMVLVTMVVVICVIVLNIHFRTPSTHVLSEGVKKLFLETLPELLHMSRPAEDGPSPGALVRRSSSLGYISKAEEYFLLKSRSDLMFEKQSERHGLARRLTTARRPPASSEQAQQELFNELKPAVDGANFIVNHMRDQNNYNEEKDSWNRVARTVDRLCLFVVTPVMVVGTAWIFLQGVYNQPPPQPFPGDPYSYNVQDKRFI
Sequence of wild-type AChR (Q04844 21-493): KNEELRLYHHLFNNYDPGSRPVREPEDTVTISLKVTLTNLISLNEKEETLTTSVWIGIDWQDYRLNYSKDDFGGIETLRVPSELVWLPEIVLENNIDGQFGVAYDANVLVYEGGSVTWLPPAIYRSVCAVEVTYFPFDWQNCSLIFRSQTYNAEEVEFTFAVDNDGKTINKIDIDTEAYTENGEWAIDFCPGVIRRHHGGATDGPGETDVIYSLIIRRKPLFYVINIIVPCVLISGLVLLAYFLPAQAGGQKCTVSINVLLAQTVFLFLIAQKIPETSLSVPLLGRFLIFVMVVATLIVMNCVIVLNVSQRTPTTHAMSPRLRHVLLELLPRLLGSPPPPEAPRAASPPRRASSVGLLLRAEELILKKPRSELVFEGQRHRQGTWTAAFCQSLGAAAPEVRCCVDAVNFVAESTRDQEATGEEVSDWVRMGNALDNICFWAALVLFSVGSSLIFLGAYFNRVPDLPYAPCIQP

Compound | difference in ACh affinity for the two sites (fetal mouse receptor) [fold] | difference in ACh affinity for the two sites (Torpedo receptor) [fold] | difference in ACh affinity for the two sites (adult human receptor) | Bursts τ1 [1, 2] [ms] | Bursts τ2 [1, 2] | Bursts, area of τ1 component [1, 2] | Bursts, area of τ2 component [1, 2] | Open intervals τ1 [1, 2] [ms] | Open intervals τ2 [1, 2] [ms] | Open intervals, area of τ1 component [1, 2] | Open intervals, area of τ2 component [1, 2] | burst duration time constant τ1 ([1]; Fig. 1 histogram, one patient, 5 μM ACh) | increase of ACh affinity in the presence of proadifen (wild-type AChR) [fold]
CC(=O)OCC[N+](C)(C)C [ACh, acetylcholine] | 32 | ~100 | sixfold | 0.17 ± 0.025 | 0.59 ms and 0.59 ± 0.061 ms | 0.61 ± 0.061 | 0.39 ± 0.061 | 0.17 ± 0.021 | 0.51 ± 0.037 | 0.65 ± 0.19 | 0.34 ± 0.096 | 0.185 | –
CCCC(C(=O)OCCN(CC)CC)(c1ccccc1)c1ccccc1 [proadifen] | – | – | – | – | – | – | – | – | – | – | – | – | ~100
